Data as given in patent US8486990B2, “SirT inhibitors that bind to NAD” (Elixir Pharmaceuticals, Inc., priority 2003, dated 2013).
“Also recorded” adds a separate entry of the source.

Legend:
Assay type in all cases: cell-based
HeLa cell = test: HeLa apoptosis assay (Cell Death Detection ELISA plus kit)
Protocol: The following exemplary compounds were evaluated for their effect on a HeLa cell apoptosis assay using the Cell Death Detection ELISA plus kit from Roche Applied Science.

[1] = tested on: acetylated p53 (at lysine 382) in NCI-H460 cells; test: p53 acetylation (lysine 382) in etoposide-treated NCI-H460 cells, Western blot; conditions: for acetylation of p53 (lysine 382) by enantiomers: 6 hours, 20 micromolar etoposide, immunoprecipitation of p53
[2] = tested on: acetylated lysine 382 of p53 in U20S cells; test: p53 acetylation (lysine 382) in etoposide-treated U20S cells; conditions: 20 micromolar etoposide, 6 hours
[3] = tested on: acetylated lysine 382 of p53 in MCF7 cells; test: p53 acetylation (lysine 382) in etoposide-treated MCF7 cells; conditions: MCF7, 20 micromolar etoposide, 6 hours
NCI-H460 cells [4] = test: cell survival after DNA damage with etoposide; conditions: NCI-H460, varying concentrations of etoposide
Text: NCI-H460 cells were damaged with varying concentrations of etoposide in the presence or absence of SIRT1 inhibitors.

NCI-H460 cells [5] = test: thymidine incorporation with etoposide and compound (cytostar plates); conditions: NCI-H460, 1 micromolar compound, added concurrent to, prior to, and after etoposide
Protocol: Thymidine incorporation was measured at 24 hours intervals.

p27 in HEK293 cells = test: p27 protein immunoblot in serum starved HEK293 cells; conditions: HEK293, serum starved 24 hrs
GFP-hSIRT2 isoform 1 = target: T1, GFP-hSIRT2 isoform 1 (Homo sapiens, UniProt Q8IXJ6); test: acetylated tubulin staining in HeLa cells transfected with GFP-hSIRT2; conditions: 1 μM TSA, 50 μM compound
T1 sequence (Q8IXJ6 1-389): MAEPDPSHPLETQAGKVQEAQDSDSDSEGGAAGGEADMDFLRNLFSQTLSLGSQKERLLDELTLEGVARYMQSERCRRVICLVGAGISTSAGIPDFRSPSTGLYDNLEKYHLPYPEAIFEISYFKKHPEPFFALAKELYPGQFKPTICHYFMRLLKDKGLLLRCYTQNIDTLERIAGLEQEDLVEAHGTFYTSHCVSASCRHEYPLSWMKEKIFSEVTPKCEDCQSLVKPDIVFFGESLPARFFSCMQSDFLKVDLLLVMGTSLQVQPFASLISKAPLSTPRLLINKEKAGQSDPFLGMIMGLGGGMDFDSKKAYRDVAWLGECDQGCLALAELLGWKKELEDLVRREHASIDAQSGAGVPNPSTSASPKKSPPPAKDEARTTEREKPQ
Text: HeLa cells were transfected with GFP-hSIRT2 isoform 1 (green). […] The next morning cells were fixed, permeabilized, and stained for acetylated tubulin (red).

yeast sir2 = target: T2, yeast sir2 (Saccharomyces cerevisiae, UniProt P06700); test: yeast silencing assay (strain SL8c, URA at the telomere, 5FOA growth); conditions: SD+0.1% 5FOA, 30° C., 18-24 hrs
T2 construct: endogenous in cells; host or cells: yeast strain SL8c (URA at the telomere)
T2 sequence (P06700 whole entry): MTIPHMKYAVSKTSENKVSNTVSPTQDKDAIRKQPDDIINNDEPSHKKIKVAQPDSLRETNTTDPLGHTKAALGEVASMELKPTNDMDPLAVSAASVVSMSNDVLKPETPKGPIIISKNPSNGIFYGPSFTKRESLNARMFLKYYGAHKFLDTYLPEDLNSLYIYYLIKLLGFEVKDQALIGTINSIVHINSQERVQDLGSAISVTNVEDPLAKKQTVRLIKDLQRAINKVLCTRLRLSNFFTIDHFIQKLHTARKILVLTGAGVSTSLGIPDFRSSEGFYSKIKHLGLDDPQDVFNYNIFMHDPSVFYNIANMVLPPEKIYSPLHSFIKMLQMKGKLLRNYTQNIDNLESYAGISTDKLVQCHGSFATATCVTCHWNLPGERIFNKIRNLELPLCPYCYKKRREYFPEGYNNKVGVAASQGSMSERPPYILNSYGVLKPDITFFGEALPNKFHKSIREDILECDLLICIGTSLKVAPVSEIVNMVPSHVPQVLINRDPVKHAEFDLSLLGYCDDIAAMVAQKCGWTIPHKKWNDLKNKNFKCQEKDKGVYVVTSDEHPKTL
Protocol: Strain SL8c (URA at the telomere) was used for yeast based assay to screen compounds. Cells were grown in -URA media to select de-silenced cells. The next day cells were diluted 1:20 into fresh YPD with 2% glucose then grow for 5 hrs. Cells were then diluted OD=0.01 in both SD and SD+0.1% 5FOA media. The compounds were then serially diluted into 10 ul of SD or SD+0.1% 5FOA medium. 140 ul of cells were pipetted into a 96 well plate and grown at 30° C. for 18-24 hrs.

## NC(=O)C1CCCc2c1[nH]c1ccccc21 (centres unmarked) [Compound 5, 2,3,4,9-Tetrahydro-1H-carbazole-1-carboxylic acid amide]
HeLa cell; dose 0.5 (unit not given)
  average (HeLa apoptosis, Cell Death Detection ELISA): 1.00
HeLa cell; dose 2.5 (unit not given)
  average (HeLa apoptosis, Cell Death Detection ELISA): 0.97
HeLa cell; dose 10 (unit not given)
  average (HeLa apoptosis, Cell Death Detection ELISA): 1.07
HeLa cell; dose 25 (unit not given)
  average (HeLa apoptosis, Cell Death Detection ELISA): 0.91

## NC(=O)C1CCCc2c1[nH]c1ccc(Cl)cc21 (centres unmarked) [Compound 8, 6-Chloro-2,3,4,9-tetrahydro-1H-carbazole-1-carboxylic acid amide]
HeLa cell; dose 0.5 (unit not given)
  average (HeLa apoptosis, Cell Death Detection ELISA): 1.23
HeLa cell; dose 2.5 (unit not given)
  average (HeLa apoptosis, Cell Death Detection ELISA): 1.85
HeLa cell; dose 10 (unit not given)
  average (HeLa apoptosis, Cell Death Detection ELISA): 2.11
HeLa cell; dose 25 (unit not given)
  average (HeLa apoptosis, Cell Death Detection ELISA): 2.27
[1]; 20 uM etoposide, 1 uM and 10 uM equally effective, relative to DMSO
  p53 acetylation (at lysine 382) after etoposide treatment: increase p53 acetylation significantly relative to DMSO alone
[2]
  inhibition of SIRT1 / P53 acetylation: competent to inhibit SIRT1 in a variety of cell lines with similar effects on P53 acetylation
[3]
  inhibition of SIRT1 / P53 acetylation: competent to inhibit SIRT1 in a variety of cell lines with similar effects on P53 acetylation
NCI-H460 cells [4]
  p53 function measured as cell survival after DNA damage: did not modulate p53 function significantly
NCI-H460 cells [5]
  synergy with etoposide on growth characteristics (thymidine incorporation): no synergy between etoposide and compound 8
p27 in HEK293 cells
  serum starvation-mediated upregulation of p27: abrogation of serum starvation-mediated upregulation of the cell cycle inhibitor p27
GFP-hSIRT2 isoform 1
  tubulin acetylation in cells expressing SIRT2: the tubulin is more highly acetylated indicating that the effect of SIRT2 was blocked

## NC(=O)C1CCCc2c1[nH]c1ccc(Cl)cc21 (single isomer, unassigned) [8(+), 6-Chloro-2,3,4,9-tetrahydro-1H-carbazole-1-carboxylic acid amide]
[1]
  acetylation of p53 (lysine 382) by enantiomers: does not lead to increased acetylation of p53
Yeast sir2
  effect on yeast cell growth / silencing: no effect on cell growth

## NC(=O)C1CCCc2c1[nH]c1ccc(Cl)cc21 (single isomer, unassigned) [8(−), 6-Chloro-2,3,4,9-tetrahydro-1H-carbazole-1-carboxylic acid amide]
[1]
  acetylation of p53 (lysine 382) by enantiomers: significant increase in acetylation and stabilization of p53 protein
Yeast sir2
  effect on yeast cell growth / silencing: preferentially inhibits yeast sir2 relative to enantiomer 8(+); also recorded: inhibits SIRT1 and allows for expression of URA3 which blocks growth in the presence of 5-fluorouracil

## Oc1ccc(/C=C/c2cc(O)cc(O)c2)cc1 [Resveratol, reference compound]
HeLa cell; dose 0.5 (unit not given)
  average (HeLa apoptosis, Cell Death Detection ELISA): 0.83
HeLa cell; dose 2.5 (unit not given)
  average (HeLa apoptosis, Cell Death Detection ELISA): 0.84
HeLa cell; dose 10 (unit not given)
  average (HeLa apoptosis, Cell Death Detection ELISA): 1.01
HeLa cell; dose 25 (unit not given)
  average (HeLa apoptosis, Cell Death Detection ELISA): 0.56
